Measured values from ChEMBL document CHEMBL3877316, “Synthesis of pharmacologically important naphthoquinones and anticancer activity of 2-benzyllawsone through DNA topoisomerase-II inhibition” (Bioorg Med Chem, 2017).
Calls of active or inactive are those of the source. No cut-off for these calls is given here.

What was measured:
Mus musculus [1] = assay: Acute toxicity in Swiss albino mouse assessed as effect on lymphocyte count up to 1000 mg/kg, po qd administered as single dose for 7 days; type: organism-based; settings: in vivo, 168 h
Mus musculus [2] = assay: Acute toxicity in Swiss albino mouse assessed as changes in absolute weight of liver up to 1000 mg/kg, po qd administered as single dose for 7 days; type: organism-based; settings: in vivo, 168 h
Mus musculus [3] = assay: Acute toxicity in Swiss albino mouse assessed as effect on monocyte count up to 1000 mg/kg, po qd administered as single dose for 7 days; type: organism-based; settings: in vivo, 168 h
Mus musculus [4] = assay: Acute toxicity in Swiss albino mouse assessed as changes in relative weight of kidney up to 1000 mg/kg, po qd administered as single dose for 7 days; type: organism-based; settings: in vivo, 168 h
Mus musculus [5] = assay: Acute toxicity in Swiss albino mouse assessed as serum ALP level at 300 mg/kg, po qd administered as single dose for 7 days (reference value: 292.13 +/- 40.29 U/L); type: organism-based; settings: in vivo, 168 h
Mus musculus [6] = assay: Acute toxicity in Swiss albino mouse assessed as body weight at 1000 mg/kg, po qd administered as single dose for 7 days (reference value: 27.73 +/- 0.94 g); type: organism-based; settings: in vivo, 168 h
[7] = Antiproliferative activity against human A549 cells after 48 hrs by SRB assay; type: functional, cell-based; settings: A549, 48 h
Mus musculus [8] = assay: Acute toxicity in Swiss albino mouse assessed as serum albumin level at 300 mg/kg, po qd administered as single dose for 7 days (reference value: 2.49 +/- 0.17 g/dl); type: organism-based; settings: in vivo, 168 h
Mus musculus [9] = assay: Acute toxicity in Swiss albino mouse assessed as body weight at 300 mg/kg, po qd administered as single dose for 7 days (reference value: 27.73 +/- 0.94 g); type: organism-based; settings: in vivo, 168 h
Mus musculus [10] = assay: Acute toxicity in Swiss albino mouse assessed as changes in absolute weight of spleen up to 1000 mg/kg, po qd administered as single dose for 7 days; type: organism-based; settings: in vivo, 168 h
Mus musculus [11] = assay: Acute toxicity in Swiss albino mouse assessed as serum triglycerides level at 50 mg/kg, po qd administered as single dose for 7 days (reference value: 107.9 +/- 10.7 mg/dl); type: organism-based; settings: in vivo, 168 h
FaDu [12] = assay: Induction of apoptosis in human FADU cells at 10 uM by propidium iodide staining based flow cytometry; type: functional, cell-based
Mus musculus [13] = assay: Acute toxicity in Swiss albino mouse assessed as serum SGPT level at 50 mg/kg, po qd administered as single dose for 7 days (reference value: 23.06 +/- 1.92 U/L); type: organism-based; settings: in vivo, 168 h
Mus musculus [14] = assay: Acute toxicity in Swiss albino mouse assessed as serum SGOT level at 50 mg/kg, po qd administered as single dose for 7 days (reference value: 34.32 +/- 3.78 U/L); type: organism-based; settings: in vivo, 168 h
Mus musculus [15] = assay: Acute toxicity in Swiss albino mouse assessed as serum albumin level at 5 mg/kg, po qd administered as single dose for 7 days (reference value: 2.49 +/- 0.17 g/dl); type: organism-based; settings: in vivo, 168 h
Mus musculus [16] = assay: Acute toxicity in Swiss albino mouse assessed as effect on basophil count up to 1000 mg/kg, po qd administered as single dose for 7 days; type: organism-based; settings: in vivo, 168 h
Mus musculus [17] = assay: Acute toxicity in Swiss albino mouse assessed as serum WBC level at 1000 mg/kg, po qd administered as single dose for 7 days (reference value: 8.64 +/- 0.42 10^3/mm3); type: organism-based; settings: in vivo, 168 h
FaDu [18] = assay: Induction of apoptosis in human FADU cells assessed as increase in PARP cleavage at 5 to 10 uM by Western blot method; type: functional, cell-based
Mus musculus [19] = assay: Acute toxicity in Swiss albino mouse assessed as serum ALP level at 5 mg/kg, po qd administered as single dose for 7 days (reference value: 292.13 +/- 40.29 U/L); type: organism-based; settings: in vivo, 168 h
Mus musculus [20] = assay: Acute toxicity in Swiss albino mouse assessed as serum SGOT level at 300 mg/kg, po qd administered as single dose for 7 days (reference value: 34.32 +/- 3.78 U/L); type: organism-based; settings: in vivo, 168 h
Mus musculus [21] = assay: Acute toxicity in Swiss albino mouse assessed as serum protein level at 1000 mg/kg, po qd administered as single dose for 7 days (reference value: 2.91 +/- 0.31 mg/ml); type: organism-based; settings: in vivo, 168 h
Mus musculus [22] = assay: Acute toxicity in Swiss albino mouse assessed as serum protein level at 50 mg/kg, po qd administered as single dose for 7 days (reference value: 2.91 +/- 0.31 mg/ml); type: organism-based; settings: in vivo, 168 h
Mus musculus [23] = assay: Acute toxicity in Swiss albino mouse assessed as serum haemoglobin level at 1000 mg/kg, po qd administered as single dose for 7 days (reference value: 13.29 +/- 0.46 g/dl); type: organism-based; settings: in vivo, 168 h
Mus musculus [24] = assay: Acute toxicity in Swiss albino mouse assessed as serum creatinine level at 1000 mg/kg, po qd administered as single dose for 7 days (reference value: 0.09 +/- 0.01 mg/dl); type: organism-based; settings: in vivo, 168 h
Mus musculus [25] = assay: Acute toxicity in Swiss albino mouse assessed as serum creatinine level at 5 mg/kg, po qd administered as single dose for 7 days (reference value: 0.09 +/- 0.01 mg/dl); type: organism-based; settings: in vivo, 168 h
Mus musculus [26] = assay: Acute toxicity in Swiss albino mouse assessed as serum WBC level at 5 mg/kg, po qd administered as single dose for 7 days (reference value: 8.64 +/- 0.42 10^3/mm3); type: organism-based; settings: in vivo, 168 h
Mus musculus [27] = assay: Acute toxicity in Swiss albino mouse assessed as changes in absolute weight of kidney up to 1000 mg/kg, po qd administered as single dose for 7 days; type: organism-based; settings: in vivo, 168 h
Mus musculus [28] = assay: Acute toxicity in Swiss albino mouse assessed as changes in posture up to 1000 mg/kg, po qd administered as single dose for 7 days; type: organism-based; settings: in vivo, 168 h
Mus musculus [29] = assay: Acute toxicity in Swiss albino mouse assessed as serum RBC level at 50 mg/kg, po qd administered as single dose for 7 days (reference value: 9.07 +/- 1.13 million/mm3); type: organism-based; settings: in vivo, 168 h
Mus musculus [30] = assay: Acute toxicity in Swiss albino mouse assessed as changes in absolute weight of lungs up to 1000 mg/kg, po qd administered as single dose for 7 days; type: organism-based; settings: in vivo, 168 h
Mus musculus [31] = assay: Acute toxicity in Swiss albino mouse assessed as changes in relative weight of spleen up to 1000 mg/kg, po qd administered as single dose for 7 days; type: organism-based; settings: in vivo, 168 h
[32] = Antiproliferative activity against human DU145 cells after 48 hrs by SRB assay; type: functional, cell-based; settings: DU-145, 48 h
Mus musculus [33] = assay: Acute toxicity in Swiss albino mouse assessed as serum SGPT level at 1000 mg/kg, po qd administered as single dose for 7 days (reference value: 23.06 +/- 1.92 U/L); type: organism-based; settings: in vivo, 168 h
Mus musculus [34] = assay: Acute toxicity in Swiss albino mouse assessed as serum protein level at 300 mg/kg, po qd administered as single dose for 7 days (reference value: 2.91 +/- 0.31 mg/ml); type: organism-based; settings: in vivo, 168 h
Mus musculus [35] = assay: Acute toxicity in Swiss albino mouse assessed as serum WBC level at 50 mg/kg, po qd administered as single dose for 7 days (reference value: 8.64 +/- 0.42 10^3/mm3); type: organism-based; settings: in vivo, 168 h
Mus musculus [36] = assay: Acute toxicity in Swiss albino mouse assessed as serum triglycerides level at 1000 mg/kg, po qd administered as single dose for 7 days (reference value: 107.9 +/- 10.7 mg/dl); type: organism-based; settings: in vivo, 168 h

Which Activity (Mus musculus [1]) does the source give for `O=C1C=C(OCc2ccccc2)C(=O)c2ccccc21` here?
Its Activity is “Non-Toxic”.

And the Activity (Mus musculus [2])?
The Activity was “Non-Toxic”.

What about the Activity (Mus musculus [3]) of the same molecule?
Its Activity is “Non-Toxic”.

And the Activity (Mus musculus [4])?
Its Activity is “Non-Toxic”.

What about the Activity (Mus musculus [5]) of the same molecule?
The Activity was 386.48 U/L.

And the Activity (Mus musculus [6])?
Its Activity is 26.48 g.

And the IC50 [7]?
The IC50 was 6.83 µM.

And the Activity (Mus musculus [8])?
Its Activity is 2.92 g/dL.

What about the Activity (Mus musculus [9]) of the same molecule?
Its Activity is 27.09 g.

And the Activity (Mus musculus [10])?
The Activity was “Non-Toxic”.

And the Activity (Mus musculus [11])?
The Activity was 112.9 mg/dL.

And the Activity (FaDu [12])?
The Activity was “Active”.

What about the Activity (Mus musculus [13]) of the same molecule?
Its Activity is 18.02 U/L.

And the Activity (Mus musculus [14])?
The Activity was 30.19 U/L.

What about the Activity (Mus musculus [15]) of the same molecule?
The Activity was 2.56 g/dL.

What about the Activity (Mus musculus [16]) of the same molecule?
The Activity was “Non-Toxic”.

And the Activity (Mus musculus [17])?
Its Activity is 8.7 ×10³ /mm3.

What about the Activity (FaDu [18]) of the same molecule?
The Activity was “Active”.

And the Activity (Mus musculus [19])?
The Activity was 307.74 U/L.

What about the Activity (Mus musculus [20]) of the same molecule?
Its Activity is 33.87 U/L.

And the Activity (Mus musculus [21])?
The Activity was 2.95 mg/mL.

What about the Activity (Mus musculus [22]) of the same molecule?
Its Activity is 2.92 mg/mL.

And the Activity (Mus musculus [23])?
The Activity was 13.28 g/dL.

What about the Activity (Mus musculus [24]) of the same molecule?
Its Activity is 0.16 mg/dL.

And the Activity (Mus musculus [25])?
Its Activity is 0.14 mg/dL.

And the Activity (Mus musculus [26])?
Its Activity is 8.66 ×10³ /mm3.

What about the Activity (Mus musculus [27]) of the same molecule?
The Activity was “Non-Toxic”.

And the Activity (Mus musculus [28])?
The Activity was “Non-Toxic”.

What about the Activity (Mus musculus [29]) of the same molecule?
The Activity was 8.54 million/mm3.

And the Activity (Mus musculus [30])?
The Activity was “Non-Toxic”.

And the Activity (Mus musculus [31])?
The Activity was “Non-Toxic”.

And the IC50 [32]?
Its IC50 is 10.6 µM.

What about the Activity (Mus musculus [33]) of the same molecule?
Its Activity is 25 U/L.

What about the Activity (Mus musculus [34]) of the same molecule?
The Activity was 2.43 mg/mL.

What about the Activity (Mus musculus [35]) of the same molecule?
The Activity was 8.38 ×10³ /mm3.

What about the Activity (Mus musculus [36]) of the same molecule?
Its Activity is 127.4 mg/dL.
